This is an account of results in ChEMBL document CHEMBL3822387 (Bioorg Med Chem, 2016).

Active and inactive are the calls of the source. The calls are words filed in the database; no cut-off is given here.

For data set [1], the target named is Cholinesterase (Equus caballus, UniProt P81908).
Description: Inhibition of equine BCHE preincubated for 6 mins followed by addition of S-butyrylcholine iodide as substrate by Ellman's method
Data set [2] addresses Acetylcholinesterase (Electrophorus electricus, UniProt O42275).
Description: Inhibition of electric eel ACHE preincubated for 6 mins followed by addition of acetylcholine iodide as substrate by Ellman's method
For data set [3], the target named is T1, Acetylcholinesterase (Homo sapiens, UniProt P22303).
Description: Inhibition of human erythrocyte ACHE preincubated for 6 mins followed by addition of acetylcholine iodide as substrate by Ellman's method
Data set [4] addresses T2, Cholinesterase (Homo sapiens, UniProt P06276).
Description: Inhibition of human serum BCHE preincubated for 6 mins followed by addition of S-butyrylcholine iodide as substrate by Ellman's method
Another data set can be described thus: in vitro. As to conditions: PAMPA.
The nature of data set [5]: Cytotoxicity against rat PC12 cells assessed as reduction in cell viability at 1 to 50 uM measured after 24 hrs by MTT assay. Type of data set: cell-based. As to conditions: pc-12, 24 h. For orientation: Tetrazolium dyes change colour on reduction, which living cells bring about.
Data set [6] relates to PC-12. Briefly: Neuroprotective activity against H2O2-induced damage in rat PC12 cells assessed as cell viability at 1 to 10 uM preincubated for 2 hrs followed by H2O2 addition for 24 hrs by MTT assay. Type of data set: functional, cell-based.
Data set [7] has as its system PC-12. Briefly: Neuroprotective activity against H2O2-induced damage in rat PC12 cells assessed as cell viability at 10 uM preincubated for 2 hrs followed by H2O2 addition for 24 hrs by MTT assay. Type of data set: functional, cell-based.
The nature of data set [8]: Metal chelating activity of the compound assessed as compound-Fe3+ complex formation by UV-vis spectroscopy by measuring maximum absorption wavelength range by UV-vis spectroscopy (reference value: 212 nm). Type of data set: physicochemical.
Data set [9] in a line: Metal chelating activity of the compound assessed as compound-Zn2+ complex formation by UV-vis spectroscopy by measuring maximum absorption wavelength range by UV-vis spectroscopy (reference value: 212 nm). Type of data set: physicochemical.
A short description of data set [10]: Metal chelating activity of the compound assessed as compound-Fe2+ complex formation by measuring maximum absorption wavelength range by UV-vis spectroscopy (reference value: 212 nm). The class given is physicochemical.
Data set [11] addresses T1, Acetylcholinesterase. Briefly: Mixed-type inhibition of ACHE (unknown origin) using acetylcholine iodide as substrate by Line weaver-Burk reciprocal plot analysis.
Data set [12] can be described thus: Metal chelating activity of the compound assessed as compound-Cu2+ complex formation by measuring bathochromic shift by UV-vis spectroscopy. The class given is physicochemical.
The target in data set [13] is T2, Cholinesterase. Briefly: Competitive inhibition of BCHE (unknown origin) using […] as substrate by Line weaver-Burk reciprocal plot analysis.

T2 sequence (P06276 whole entry): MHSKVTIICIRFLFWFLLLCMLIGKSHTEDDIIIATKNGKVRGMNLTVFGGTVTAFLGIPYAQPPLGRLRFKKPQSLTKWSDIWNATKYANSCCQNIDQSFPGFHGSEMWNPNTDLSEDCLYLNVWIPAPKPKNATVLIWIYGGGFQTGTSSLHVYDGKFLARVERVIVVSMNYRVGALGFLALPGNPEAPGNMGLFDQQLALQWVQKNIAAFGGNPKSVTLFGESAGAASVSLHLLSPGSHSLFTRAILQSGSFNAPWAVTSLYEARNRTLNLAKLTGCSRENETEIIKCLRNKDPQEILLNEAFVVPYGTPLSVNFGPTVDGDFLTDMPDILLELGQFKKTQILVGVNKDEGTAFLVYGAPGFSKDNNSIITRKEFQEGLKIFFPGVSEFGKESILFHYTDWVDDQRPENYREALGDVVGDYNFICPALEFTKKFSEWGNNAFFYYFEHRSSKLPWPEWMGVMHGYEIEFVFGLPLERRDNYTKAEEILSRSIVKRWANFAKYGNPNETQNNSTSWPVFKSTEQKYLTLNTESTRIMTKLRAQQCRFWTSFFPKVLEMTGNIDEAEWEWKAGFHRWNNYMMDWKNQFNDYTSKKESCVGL
T1 sequence (P22303 whole entry): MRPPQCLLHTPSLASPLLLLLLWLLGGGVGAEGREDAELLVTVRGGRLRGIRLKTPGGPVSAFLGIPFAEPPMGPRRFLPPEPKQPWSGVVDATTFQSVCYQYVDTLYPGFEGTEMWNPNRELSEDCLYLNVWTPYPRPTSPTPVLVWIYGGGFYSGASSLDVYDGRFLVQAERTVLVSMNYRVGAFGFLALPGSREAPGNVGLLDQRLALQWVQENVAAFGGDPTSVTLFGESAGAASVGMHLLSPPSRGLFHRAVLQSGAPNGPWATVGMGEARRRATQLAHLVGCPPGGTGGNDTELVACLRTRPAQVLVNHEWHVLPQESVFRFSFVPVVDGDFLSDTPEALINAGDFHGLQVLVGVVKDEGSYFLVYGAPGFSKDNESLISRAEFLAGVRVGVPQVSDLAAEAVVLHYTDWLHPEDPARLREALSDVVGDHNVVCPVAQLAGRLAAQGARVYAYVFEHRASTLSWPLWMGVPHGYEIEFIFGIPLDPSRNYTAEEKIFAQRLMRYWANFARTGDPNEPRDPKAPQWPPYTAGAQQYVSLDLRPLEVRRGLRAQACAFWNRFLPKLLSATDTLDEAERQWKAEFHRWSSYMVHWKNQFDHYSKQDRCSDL
Chain of Acetylcholinesterase (Electrophorus electricus, UniProt O42275) (O42275 whole entry): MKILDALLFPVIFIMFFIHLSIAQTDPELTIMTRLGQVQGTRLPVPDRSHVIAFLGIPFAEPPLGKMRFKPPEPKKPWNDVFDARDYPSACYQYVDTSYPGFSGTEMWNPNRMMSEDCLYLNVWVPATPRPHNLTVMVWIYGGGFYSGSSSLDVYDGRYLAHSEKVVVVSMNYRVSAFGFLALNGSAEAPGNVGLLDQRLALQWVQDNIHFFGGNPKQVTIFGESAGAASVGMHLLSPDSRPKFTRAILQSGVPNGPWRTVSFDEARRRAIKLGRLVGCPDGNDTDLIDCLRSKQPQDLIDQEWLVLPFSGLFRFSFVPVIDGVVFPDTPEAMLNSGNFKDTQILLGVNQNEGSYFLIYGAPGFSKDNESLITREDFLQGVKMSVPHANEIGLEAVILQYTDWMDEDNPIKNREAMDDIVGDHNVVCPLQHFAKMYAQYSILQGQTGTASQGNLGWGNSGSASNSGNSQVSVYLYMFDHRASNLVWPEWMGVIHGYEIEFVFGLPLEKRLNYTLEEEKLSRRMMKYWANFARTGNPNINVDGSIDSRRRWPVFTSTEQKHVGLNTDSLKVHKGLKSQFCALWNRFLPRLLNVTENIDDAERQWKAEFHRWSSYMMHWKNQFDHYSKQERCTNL
Chain of Cholinesterase (Equus caballus, UniProt P81908) (P81908 whole entry): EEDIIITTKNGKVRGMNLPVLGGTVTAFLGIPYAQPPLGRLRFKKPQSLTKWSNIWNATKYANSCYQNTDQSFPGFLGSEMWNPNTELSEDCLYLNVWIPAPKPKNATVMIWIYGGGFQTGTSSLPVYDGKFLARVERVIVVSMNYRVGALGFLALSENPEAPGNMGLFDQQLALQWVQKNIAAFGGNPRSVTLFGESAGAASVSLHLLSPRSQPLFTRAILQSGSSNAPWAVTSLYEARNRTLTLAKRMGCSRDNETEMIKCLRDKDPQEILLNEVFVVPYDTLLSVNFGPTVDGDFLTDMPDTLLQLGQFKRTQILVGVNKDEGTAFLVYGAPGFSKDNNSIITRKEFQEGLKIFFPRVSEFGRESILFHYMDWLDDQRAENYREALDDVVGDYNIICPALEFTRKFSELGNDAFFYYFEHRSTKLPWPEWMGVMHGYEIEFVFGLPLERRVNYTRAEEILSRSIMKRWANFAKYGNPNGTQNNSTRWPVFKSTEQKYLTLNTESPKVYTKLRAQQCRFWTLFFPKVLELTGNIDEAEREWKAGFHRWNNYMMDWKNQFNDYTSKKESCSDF

As to `O=C(CC1CCN(Cc2ccccc2Cl)CC1)NCCc1c[nH]c2ccccc12`, the IC50 (commonly the concentration that inhibits the measured activity by half) on Cholinesterase [1] was 1490 nM; on Acetylcholinesterase [2], 28200 nM.
In the case of `COc1ccc2[nH]cc(CCNC(=O)CC3CCN(Cc4cccc(C)c4)CC3)c2c1`, the IC50 against Acetylcholinesterase [3] was 13500 nM; at Cholinesterase [4], 1400 nM; against Cholinesterase [1], 4400 nM; against Acetylcholinesterase [2], 9500 nM.
Turning to `O=C(CC1CCN(Cc2ccccc2)CC1)NCCc1c[nH]c2ccccc12`, the half-inhibitory concentration (IC50) against Acetylcholinesterase [3] is 3800 nM; against Cholinesterase [4] it was 950 nM; against Cholinesterase [1] it was 1100 nM; against Acetylcholinesterase [2] it was 2100 nM. Also, the Papp – broadly, a coefficient for how fast a substance crosses the barrier – at 50 ug/ml in “in vitro” stood at 7.4 ×10⁻⁶ cm/s.
On to `O=C(NCCc1c[nH]c2ccccc12)C1CCN(Cc2ccccc2)CC1`, for which the IC50 against Acetylcholinesterase [3] worked out at 7850 nM; at Cholinesterase [4], 2000 nM; at Cholinesterase [1], 3300 nM; against Acetylcholinesterase [2], 5550 nM.
With `O=C(CC1CCN(Cc2ccc(Cl)cc2)CC1)NCCc1c[nH]c2ccccc12`, the IC50 was 5290 nM against Cholinesterase [1] and 22400 nM at Acetylcholinesterase [2].
As to `O=C(CCc1c[nH]c2ccccc12)NC1CCN(Cc2ccccc2)CC1`, the half-maximal inhibitory concentration (IC50) against Acetylcholinesterase [3] came out at 8320 nM; against Cholinesterase [4], 120 nM; at Cholinesterase [1] it was 370 nM; at Acetylcholinesterase [2], 5750 nM. Further, the Activity result in data set [5] is listed as “Non-toxic”.
As for `COc1ccc2[nH]cc(CCNC(=O)CC3CCN(Cc4ccccc4C)CC3)c2c1`, the concentration for half-maximal inhibition (IC50) against Acetylcholinesterase [3] is 3600 nM; at Cholinesterase [4], 1030 nM; at Cholinesterase [1], 1280 nM; against Acetylcholinesterase [2] it was 2200 nM. For the same molecule, the Papp at 50 ug/ml in the data set “in vitro” turned out to be 10.9 ×10⁻⁶ cm/s. Also, the Activity entry in data set [5] is given as “Non-toxic”. In addition, the result with PC-12 [6] was Active.
In the case of `Cc1ccccc1CN1CCC(CC(=O)NCCc2c[nH]c3ccccc23)CC1`, the half-maximal inhibitory concentration (IC50) against Acetylcholinesterase [3] came to 1540 nM; at Cholinesterase [4], 1420 nM; at Cholinesterase [1], 1490 nM; on Acetylcholinesterase [2], 940 nM. This molecule also had a Papp at 50 ug/ml in “in vitro” of 6.91 ×10⁻⁶ cm/s. In data set [5], the Activity entry is “Non-toxic”. In addition, the outcome in the data set on PC-12 [6] was Active.
As for `O=C(CC1CCN(Cc2cccc(Cl)c2)CC1)NCCc1c[nH]c2ccccc12`, the values for the half-inhibitory concentration (IC50) on Cholinesterase [1] and against Acetylcholinesterase [2] were 950 nM and 1630 nM, respectively.
For `COc1ccc2[nH]cc(CCNC(=O)CC3CCN(Cc4ccccc4Cl)CC3)c2c1`, in that order: 1280 nM and 16800 nM.
As for `Cc1cccc(CN2CCC(CC(=O)NCCc3c[nH]c4ccccc34)CC2)c1`, the half-inhibitory concentration (IC50) against Acetylcholinesterase [3] turned out to be 4630 nM; on Cholinesterase [4] it was 850 nM; on Cholinesterase [1] it was 950 nM; against Acetylcholinesterase [2] it was 1630 nM.
In the case of `COc1ccc2[nH]cc(CCNC(=O)C3CCN(Cc4ccccc4)CC3)c2c1`, the IC50 against Acetylcholinesterase [3] was 12200 nM; at Cholinesterase [4], 2210 nM; on Cholinesterase [1], 8210 nM; against Acetylcholinesterase [2], 9270 nM.
As for `COc1ccc2[nH]cc(CCNC(C)=O)c2c1`, the result in the data set on PC-12 [7] was Active.
With `O=C(NCCc1c[nH]c2ccccc12)C1CCN(Cc2ccccc2[N+](=O)[O-])CC1`, the half-maximal inhibitory concentration (IC50) is 10800 nM on Cholinesterase [1] and 31500 nM on Acetylcholinesterase [2].
Regarding `COc1ccc2[nH]cc(CCNC(=O)C3CCN(Cc4ccccc4[N+](=O)[O-])CC3)c2c1`, the IC50 against Cholinesterase [1] is 28500 nM; at Acetylcholinesterase [2] it was 54200 nM.
For `COc1ccc2[nH]cc(CCNC(=O)CC3CCN(Cc4ccc(Cl)cc4)CC3)c2c1`, the results for the IC50 on Cholinesterase [1] and at Acetylcholinesterase [2] were 6480 nM and 20600 nM, respectively.
On to `COc1ccc2[nH]cc(CCNC(=O)CC3CCN(Cc4ccc(C)cc4)CC3)c2c1`, for which the IC50 was 9260 nM against Acetylcholinesterase [3], 1060 nM on Cholinesterase [4], 1480 nM at Cholinesterase [1] and 5260 nM against Acetylcholinesterase [2].
For the molecule `Cc1c(C)c2c(c(C)c1O)CCC(C)(C(=O)O)O2` (centres undefined), the outcome in the data set with PC-12 [7] was Active.
For `COc1ccc2[nH]cc(CCNC(=O)C3CCN(Cc4ccccc4C)CC3)c2c1`, the 50% inhibitory concentration (IC50) on Acetylcholinesterase [3] came to 7420 nM; on Cholinesterase [4] it was 3010 nM; at Cholinesterase [1], 3210 nM; against Acetylcholinesterase [2], 4420 nM. Also, the apparent permeability (Papp) at 50 ug/ml in “in vitro” was determined as 9.37 ×10⁻⁶ cm/s. In addition, in data set [5], the Activity result is recorded as “Non-toxic”. In addition, the outcome in the data set with PC-12 [6] was Active.
As for `Cc1ccc(CN2CCC(CC(=O)NCCc3c[nH]c4ccccc34)CC2)cc1`, the IC50 is 4940 nM on Acetylcholinesterase [3], 290 nM at Cholinesterase [4], 1290 nM at Cholinesterase [1] and 1940 nM at Acetylcholinesterase [2].
As to `CC(=O)[C@H]1CC[C@H]2[C@@H]3CCC4=CC(=O)CC[C@]4(C)[C@H]3CC[C@]12C` [PROGESTERONE], the apparent permeability (Papp) at 50 ug/ml in the data set “in vitro” is 5.62 ×10⁻⁶ cm/s.
As for `Cc1ccccc1CN1CCC(C(=O)NCCc2c[nH]c3ccccc23)CC1`, the IC50 against Acetylcholinesterase [3] was 3560 nM; on Cholinesterase [4] it was 400 nM; against Cholinesterase [1], 1500 nM; against Acetylcholinesterase [2], 2250 nM. In “in vitro”, this molecule had an apparent permeability coefficient (Papp) at 50 ug/ml of 8.9 ×10⁻⁶ cm/s. Besides, in [5], the Activity entry was “Non-toxic”. Moreover, the outcome in the data set with PC-12 [6] was Active.
Turning to `O=C(CCc1c[nH]c2ccccc12)NCCC1CCN(Cc2ccccc2)CC1`, the Activity is recorded as 216 nm in data set [8]; “Non-toxic” in [5]; 214 nm in [9]; 216 nm in data set [10]; 219 nm in [12]. Also, the IC50 on Acetylcholinesterase [3] was 273 nM; on Cholinesterase [4] it was 56 nM; against Cholinesterase [1] it was 73 nM; against Acetylcholinesterase [2], 193 nM. In addition, the Papp at 50 ug/ml in the data set “in vitro” came to 6.98 ×10⁻⁶ cm/s. Besides, the inhibition entry on Acetylcholinesterase [11] and on Cholinesterase [13] was “Active” each time. The result in the data set with PC-12 [6] was Active.
For the molecule `COc1ccc2[nH]cc(CCNC(=O)CC3CCN(Cc4cccc(Cl)c4)CC3)c2c1`, the half-maximal inhibitory concentration (IC50) was 4400 nM at Cholinesterase [1] and 9500 nM against Acetylcholinesterase [2].
